Patent publication EP4775577A1, “RAS INHIBITOR” (Tyligand Bioscience (Shanghai) Limited, priority 2023, dated 2025)
Like-named read-outs stand apart in the source and are kept apart here.

Legend:
Pharmacokinetics in mice = settings: mouse, po
Experimental: Male CD-1 mice, aged 6-8 weeks, were purchased from Zhejiang Vital River Laboratory Animal Co., Ltd.
For the PO administration group, compounds were formulated in 0.5% Tween 80 and 99.5% (0.5%MC (400cp)) vehicle or 0.5%MC (400cp) vehicle to a final concentration of 1 mg/mL or 2 mg/mL for each compound. The drug formulation was administered to CD-1 mice via gavage at a dose of 10 mL/kg. Blood samples were collected from the submandibular vein or other suitable means at 15 min, 30 min, 1 h, 2 h, 4 h, 6 h, 8 h, and 24 h after administration. The blood samples were centrifuged at low temperature for 5 minutes, and the plasma was collected and stored at -80°C for analysis.
10 µL of plasma sample was taken, 200 µL of methanol containing an internal standard as a precipitant was added to precipitate plasma proteins, the compounds to be tested in the plasma was extracted, centrifuged at low temperature, and 10 µL of the supernatant was injected. The drug concentration in blood plasma was analyzed by LC-MS/MS. The pharmacokinetic parameters were calculated using Winnonlin based on the blood drug concentration data at different time points.

[1] = system: KRAS G12D mutant AGS cells; experiment: Proliferation inhibition of AGS cells, CellTiter-Glo assay; format: cell-based, human; settings: 3 days, CTG, read-out: AGS IC50/nM
Outline: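 AGS cells at 1500 cells/well in F12K + 10% FBS were exposed for 3 days at 37°C to nine 3-fold dilutions from 10 µM top concentration, in duplicate. Viability read by CellTiter-Glo luminescence; IC50 (nM) from dose-response-inhibition fitting.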

[2] = system: KRAS G12V mutant NCI-H727 cells; experiment: Proliferation inhibition of NCI-H727 cells, 3D CellTiter-Glo assay (Method B); format: cell-based, human; settings: Method B, 3D culture with 0.65% methylcellulose, 5 days, CTG, read-out: NCI-H727 IC50/nM
Outline: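 Cells grown in 3D medium (RPMI-1640, 10% FBS, 0.65% methylcellulose) overnight, then treated 5 days at 37 °C, 5% CO2 with 9 threefold dilutions from 10 µM top working concentration, duplicate wells. CellTiter-Glo luminescence read; IC50 (nM) fitted by dose-response-inhibition equation.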

[3] = system: KRAS G12S mutant A549 cells; experiment: Proliferation inhibition of A549 cells, 3D CellTiter-Glo assay; format: cell-based; settings: Homo sapiens, A549, 120 h, read-out: A549 IC50/nM
Experimental: A549 cells (Nanjing Kebai Biotechnology Co., Ltd., catalog number CBP60084, adherent, culture medium (F12K Nutrient Mixture+10%FBS (GIBCO, Cat#10091-148) at 37°C, 5%CO2, and 95% humidity.
3D Cell Viability Assay: Cells in the logarithmic growth phase were harvested and counted using a platelet counter. Cell viability was assessed using the trypan blue exclusion method to ensure a viability of over 90%. The 3D cell culture medium was prepared by adding 1% MC (methylcellulose, Sigma, Cat#M0512) F-12K medium and 10% FBS. The cell concentration was adjusted to approximately 7407 cells/mL using the 3D medium, and the methylcellulose (MC) content was set to 0.65%. Then, 135 µL of cell suspension was added to each 96-well clear, flat-bottomed, black-walled plate (Greiner, Cat#655096). The cells in the 96-well plates were cultured overnight at 37°C with 5% CO2.
Drug preparation for IC50 assay: A 10-fold drug solution was prepared using culture medium. […] of the drug solution was added to each well of a 96-well plate seeded with cells to achieve a working concentration of up to 10 µM, with a 3× dilution, and 9 concentrations. 2 replicate wells for each drug concentration were set. The cells in the drug-treated 96-well plates were cultured at 37°C and 5% CO^2 for additional5 days, then CTG assay (CellTiter-Glo® Luminescent Cell Viability Assay (Promega, Cat#G7573)) were performed.
The cell plate was equilibrated to room temperature for 30 minutes and the CTG reagent was thawed. 75 µL of CTG solution was added to each well for detection, and the plate was shaken on an orbital shaker for 5 minutes to lyse the cells. The cell plate was placed at room temperature for 25 minutes to stabilize the cryo-luminescence signal and the cryo-luminescence value was read (EnVision® multi-plate reader, PerkinElmer#2105).
Data was analyzed using GraphPad Prism software. The dose-response-inhibition equation was used to fit the data to obtain the dose-response curve, and the IC50 value (nM) was calculated accordingly. [formula]

Row | Compound | AUC(0-t) at 8 h (Pharmacokinetics in mice; plasma, 10 mg/kg) [ng·h/mL] | IC50 ([1]; Homo sapiens, AGS, 72 h) [nM] | IC50 ([2]; Homo sapiens, NCI-H727, 120 h) [nM] | AUC(0-t) at 8 h (Pharmacokinetics in mice; plasma, 20 mg/kg) [ng·h/mL] | AUC(0-t) at 8 h (Pharmacokinetics in mice; in vivo, 20 mg/kg) [ng·h/mL] | IC50 [3] [nM] | IC50 [1] [nM] | IC50 [2] [nM]
1 | CCN1CC/C(=C\F)[C@](C)(COc2nc(N3Cc4cc(C(C)=O)nn4CC[C@@H]3C)c3cc(Cl)c(-c4c(F)ccc5sc(N)c(C#N)c45)c(F)c3n2)C1 (single isomer, unassigned) [Example 268A] | 907 | 3.5 | 4 | – | – | – | – | –
2 | CCOc1c(C(=O)N(C)C)nn2c1CN(c1nc(OC[C@]3(C)CN(CC)CC/C3=C\F)nc3c(F)c(-c4c(F)ccc5sc(N)c(C#N)c45)c(Cl)cc13)[C@@H](C)CC2 (single isomer, unassigned) [Example 236A] | – | 2.7 | 1.5 | 2820 | – | – | – | –
3 | [2H]C([2H])([2H])N1CC/C(=C\F)[C@](C)(COc2nc(N3Cc4c(COC)c(C(=O)N(C)C)nn4CC[C@@H]3C)c3cc(CC)c(-c4c(F)ccc5sc(N)c(C#N)c45)c(F)c3n2)C1 (single isomer, unassigned) [Example 258A] | – | 1.9 | < 1.5 | 1320 | – | – | – | –
4 | CCN1CC/C(=C\F)[C@](C)(COc2nc(N3Cc4cc(C(=O)N(C)C)nn4CC[C@@H]3C)c3cc(Cl)c(-c4c(F)ccc5sc(N)c(C#N)c45)c(C)c3n2)C1 (single isomer, unassigned) [Example 178A] | 1190 | 1.9 | < 1.5 | – | – | – | – | –
5 | [2H]C([2H])([2H])C([2H])([2H])N1CC/C(=C\F)[C@](C)(COc2nc(N3Cc4c(COC)c(C(=O)N(C)C)nn4CC[C@@H]3C)c3cc(Cl)c(-c4c(F)ccc5sc(N)c(C#N)c45)c(C)c3n2)C1 (atropisomer, axis not shown) [Example 249A] | – | 2.3 | < 1.5 | – | 5360 | – | – | –
6 | CCN1CC/C(=C\F)[C@](C)(COc2nc(N3Cc4c(COC)c(C(=O)N(C)C)nn4CC[C@@H]3C)c3cc(Cl)c(-c4c(F)ccc5sc(N)c(C#N)c45)c(C(F)F)c3n2)C1 (atropisomer, axis not shown) [Example 241A] | – | 8.3 | 6.5 | 1660 | – | – | – | –
7 | [2H]C([2H])([2H])N1CC/C(=C\F)[C@](C)(COc2nc(N3Cc4cc(C(=O)N(C)C)nn4CC[C@@H]3C)c3cc(CC)c(-c4c(F)ccc5sc(N)c(C#N)c45)c(F)c3n2)C1 (single isomer, unassigned) [Example 173A] | – | < 1.5 | < 1.5 | – | – | 43.5 | – | –
8 | CN1CC/C(=C\F)[C@](C)(COc2nc(N3CCCn4nc(C(=O)N(C)C)cc4C3)c3cc(Cl)c(-c4c(F)ccc5sc(N)c(C#N)c45)c(F)c3n2)C1 (atropisomer, axis not shown; (Ra)) [Example 93A, (Ra)-5-(7-(2-amino-3-cyano-5-fluorobenzo[b]thiophene-4-yl)-6-chloro-8-fluoro-2-(((S,E)-4-(fluoromethylene)-1,3-dimethylpiperidine-3-yl)methoxy)quinazoline-4-yl)-N,N-dimethyl-5,6,7,8-tetrahydro-4H-pyrazolo[1,5-a][1,4]diazepine-2-formamide·formate] | – | – | – | – | – | 32.6 | < 1.5 | 4.1
9 | CCN1CC/C(=C\F)[C@](C)(COc2nc(N3Cc4cc(C(=O)N(C)C)nn4CC[C@@H]3C)c3cc(Cl)c(-c4c(F)ccc5sc(N)c(C#N)c45)c(F)c3n2)C1 (atropisomer, axis not shown) [Example 246A] | – | < 1.5 | < 1.5 | 1040 | – | – | – | –
10 | CN1CC/C(=C\F)[C@](C)(COc2nc(N3CCCn4nc(C(=O)N(C)C)c(Cl)c4C3)c3cc(C(F)(F)F)c(-c4c(F)ccc5sc(N)c(C#N)c45)c(F)c3n2)C1 [Example 160] | – | < 1.5 | < 1.5 | – | – | 11.1 | – | –
11 | CCN1CCC(C(F)F)C(C)(COc2nc(N3Cc4c(COC)c(C(=O)N(C)C)nn4CCC3C)c3cc(Cl)c(-c4c(F)ccc5sc(N)c(C#N)c45)c(F)c3n2)C1 (stereo not drawn) [Example 251A] | – | 1.8 | < 1.5 | 1960 | – | – | – | –
12 | CCN1CC/C(=C\F)[C@](C)(COc2nc(N3Cc4c(COC)c(C(=O)N(C)C)nn4CC[C@@H]3C)c3cc(Cl)c(-c4c(F)cc(F)c5sc(N)c(C#N)c45)c(F)c3n2)C1 (single isomer, unassigned) [Example 237A] | – | < 1.5 | < 1.5 | 3910 | – | – | – | –
13 | CCN1CC/C(=C\F)[C@](C)(COc2nc(N3Cc4c(COC)c(C(=O)N(C)C)nn4CC[C@@H]3C)c3cc(Cl)c(-c4c(F)ccc5sc(N)c(C#N)c45)c(C)c3n2)C1 (single isomer, unassigned) [Example 229A] | – | 1.7 | < 1.5 | – | 4490 | – | – | –
14 | [2H]C([2H])([2H])N1CC[C@H](C(F)F)[C@](C)(COc2nc(N3Cc4cc(C(=O)N(C)C)nn4CC[C@@H]3C)c3cc(CC)c(-c4c(F)ccc5sc(N)c(C#N)c45)c(F)c3n2)C1 (single isomer, unassigned) [Example 174A] | – | < 1.5 | 2.5 | – | – | 51.9 | – | –
15 | CCN1CC/C(=C\F)[C@](C)(COc2nc(N3CCCn4nc(C(=O)N(C)C)c(Cl)c4C3)c3cc(Cl)c(-c4c(F)ccc5sc(N)c(C#N)c45)c(F)c3n2)C1 (single isomer, unassigned) [Example 256A] | – | 1.5 | < 1.5 | 1380 | – | – | – | –
16 | CN1CC[C@H](C(F)F)[C@](C)(COc2nc(N3CCOC[C@@](C)(O)C3)c3cc(C(F)(F)F)c(-c4cccc5sc(N)c(C#N)c45)c(F)c3n2)C1 (atropisomer, axis not shown) [Example 5A, (S)-2-amino-4-(2-(((3S,4S)-4-(difluoromethyl)-1,3-dimethylpiperidine-3-yl)methoxy)-8-fluoro-4-((S)-6-hydroxy-6-methyl-1,4-oxazol-4-yl)-6-(trifluoromethyl)quinazoline-7-yl)benzo[b]thiophene-3-carbonitrile] | – | 1.6 | < 1.5 | – | – | 16.5 | – | –
17 | C[C@H]1CCn2nc(C(=O)N(C)C)cc2CN1c1nc(OC[C@]2(C)CN(C)CC/C2=C\F)nc2c(F)c(-c3c(F)ccc4sc(N)c(C#N)c34)c(C3CC3)cc12 (single isomer, unassigned) [Example 162A] | – | < 1.5 | 2.1 | – | – | 82.4 | – | –
18 | [2H]C([2H])([2H])N1CC[C@H](C(F)F)[C@](C)(COc2nc(N3CCOC[C@@](C)(O)C3)c3cc(C(F)(F)F)c(-c4ccc(F)c5sc(N)c(C#N)c45)c(F)c3n2)C1 [Example 55] | – | 13.1 | 2.4 | – | – | 40.7 | – | –
19 | CN1CC/C(=C\F)[C@](C)(COc2nc(N3CCCn4nc(C(=O)N(C)C)cc4C3)c3cc(C(F)(F)F)c(-c4cccc5sc(N)c(C#N)c45)c(F)c3n2)C1 (single isomer, unassigned) [Example 8A] | – | 1.5 | 4.4 | – | – | 101 | – | –
20 | CN1CC/C(=C\F)[C@](C)(COc2nc(N3CCCn4nc(C(=O)N(C)C)cc4C3)c3cc(C(F)(F)F)c(-c4c(F)ccc5sc(N)c(C#N)c45)c(F)c3n2)C1 (single isomer, unassigned) [Example 28A] | – | < 1.5 | 1.8 | – | – | 31.2 | – | –
21 | C[C@H]1CCn2nc(C(=O)N(C)C)cc2CN1c1nc(OC[C@]2(C)CN(C)CC/C2=C\F)nc2c(F)c(-c3cccc4sc(N)c(C#N)c34)c(C(F)(F)F)cc12 (atropisomer, axis not shown) [Example 123A] | – | < 1.5 | < 1.5 | – | – | 33.8 | – | –
